This note sets out measurements from ChEMBL document CHEMBL1155573, “Aristolactams and dioxoaporphines from Fissistigma balansae and Fissistigma oldhamii” (2000).

One may read the inhibition as the drop in the measured response relative to a control, in per cent.

Common to all, as to assay type: functional
Details in all cases: Oryctolagus cuniculus

The subject of assay [1] is Platelet. In words: Inhibition of thrombin-induced rabbit platelet aggregation at 100 ug/ml.
Assay [2] relates to Platelet. Briefly: Inhibition of arachidonic acid-induced rabbit platelet aggregation at 100 ug/ml.
Assay [3] deals with Platelet. Briefly: Inhibition of collagen-induced rabbit platelet aggregation at 100 ug/ml.
Assay [4] relates to Platelet. Briefly: Inhibition of collagen-induced rabbit platelet aggregation at 20 ug/ml.
The test system of assay [5] is Platelet. Briefly: Inhibition of collagen-induced rabbit platelet aggregation at 50 ug/ml.
For assay [6], the system named is Platelet. In words: Inhibition of platelet-activating factor-induced rabbit platelet aggregation at 100 ug/ml.
Assay [7] has as its system Platelet. In words: Inhibition of arachidonic acid-induced rabbit platelet aggregation at 50 ug/ml.
For assay [8], the system named is Platelet. In words: Inhibition of arachidonic acid-induced rabbit platelet aggregation at 20 ug/ml.
The test system of assay [9] is Platelet. In words: Inhibition of arachidonic acid-induced rabbit platelet aggregation at 10 ug/ml.
Assay [10] has as its system Platelet. In words: Inhibition of collagen-induced rabbit platelet aggregation at 10 ug/ml.

Each structure is given as a SMILES string.

Regarding `COc1c(O)cc2c3c(cc4ccccc4c13)NC(=O)C2=O` [NORARISTOLODIONE], the inhibition at 100 µg/mL amounted to 88.7% in the assay on Platelet [1], 65.8% in the assay on Platelet [2], 40.6% with Platelet [3] and 82.5% with Platelet [6]. This compound also registered an inhibition at 20 µg/mL in the assay on Platelet [4] of 84.7%. In the assay with Platelet [5], this compound had an inhibition at 50 µg/mL of 72%.
As to `COc1cc2c3c(cc4c(O)cccc4c3c1OC)NC2=O` [VELUTINAM], the inhibition at 100 µg/mL was 92.1% in the assay with Platelet [1], 37.5% in the assay with Platelet [2], 18.4% with Platelet [3] and 87.3% in the assay with Platelet [6]. For the same compound, the results for the inhibition at 50 µg/mL with Platelet [7] and in the assay on Platelet [5] were 77.5% and 65.4%, respectively.
For the compound `COc1cc2c3c(cc4ccccc4c3c1O)NC2=O` [PIPEROLACTAM A], the inhibition at 100 µg/mL in the assay with Platelet [1] was 84.3%; with Platelet [2], 0%; with Platelet [3], 0%; in the assay with Platelet [6], 84.1%. In addition, the inhibition at 50 µg/mL stood at 14.7% in the assay with Platelet [7] and 22.2% in the assay on Platelet [5]. Besides, the inhibition at 20 µg/mL with Platelet [8] was 83.5%; with Platelet [4], 84.2%.
With `COc1c(O)cc2c3c(cc4ccc(O)cc4c13)NC2=O` [ARISTOLACTAM AIIIA], the inhibition at 100 µg/mL in the assay on Platelet [1] was 90.6%; in the assay on Platelet [2], 56.9%; in the assay on Platelet [3] it was 39.6%; in the assay with Platelet [6] it was 80.7%.
`COc1ccc2cc3c4c(cc(OC)c(OC)c4c2c1)C(=O)N3` [ARISTOLACTAM BIII]: the inhibition at 100 µg/mL in the assay with Platelet [1] is 89.3%; with Platelet [2], 71.9%; in the assay on Platelet [3], 0%; in the assay on Platelet [6], 60.6%. Moreover, the inhibition at 50 µg/mL was found to be 86.6% with Platelet [7] and 59.1% in the assay with Platelet [5].
`COc1c(O)cc2c3c(cc4ccccc4c13)NC2=O` [ARISTOLACTAM AII]: the inhibition at 100 µg/mL in the assay on Platelet [1] came to 90%; in the assay with Platelet [2], 86.3%; in the assay with Platelet [3] it was 82.5%; in the assay with Platelet [6], 78.3%.
On to `COc1c(OC)c(OC)c2c3c(cc4ccc(O)cc42)NC(=O)c13` [STIGMALACTAM], for which the inhibition at 100 µg/mL in the assay on Platelet [1] worked out at 91.9%; with Platelet [2] it was 14.2%; with Platelet [3], 10.1%; in the assay on Platelet [6] it was 70.8%. Besides, the inhibition at 50 µg/mL with Platelet [7] is 18.8%; in the assay with Platelet [5], 30.8%. The inhibition at 20 µg/mL in the assay on Platelet [8] was 46.4%; in the assay on Platelet [4], 72.9%.
For the compound `CC(=O)Oc1ccccc1C(=O)O` [ASPIRIN], the inhibition at 100 µg/mL in the assay on Platelet [2] is 0%; in the assay on Platelet [3], 87.8%; in the assay on Platelet [6] it was 90.4%.
With `COc1cccc2c1c(OC)c1c3c(cc(O)c(OC)c32)C(=O)N1` [ENTEROCARPAM I], the inhibition at 10 µg/mL with Platelet [9] was determined as 83.5%; in the assay on Platelet [10], 83.7%. For the same compound, the inhibition at 100 µg/mL in the assay on Platelet [1] was 86.5%; in the assay on Platelet [2] it was 2.2%; in the assay on Platelet [3], 43%; in the assay on Platelet [6] it was 70.8%. In addition, the inhibition at 50 µg/mL in the assay on Platelet [7] worked out at 13.5%; in the assay with Platelet [5] it was 25.8%. Moreover, the inhibition at 20 µg/mL was 46.4% with Platelet [8] and 72.9% with Platelet [4].
As to `COc1cc2c3c(cc4ccc(O)cc4c3c1OC)NC2=O` [GONIOTHALACTAM], the figures for the inhibition at 10 µg/mL with Platelet [9] and with Platelet [10] were 85.9% and 83%, respectively. Besides, the inhibition at 100 µg/mL in the assay with Platelet [1] was found to be 89.8%; in the assay on Platelet [2] it was 13.6%; with Platelet [3] it was 10.5%; with Platelet [6], 67.3%. The inhibition at 50 µg/mL amounted to 50.4% with Platelet [7] and 17.3% in the assay on Platelet [5]. The inhibition at 20 µg/mL in the assay on Platelet [8] turned out to be 81.6%; in the assay on Platelet [4], 75.9%.
Regarding `COc1c(OC)c(OC)c2c3c(cc4ccccc42)NC(=O)c13` [PIPEROLACTAM C], the inhibition at 100 µg/mL stood at 83.7% in the assay on Platelet [1], 7.8% with Platelet [2], 0% in the assay with Platelet [3] and 6.1% in the assay on Platelet [6]. In addition, the inhibition at 50 µg/mL came out at 89.4% in the assay on Platelet [7] and 82% in the assay with Platelet [5].
Regarding `COc1c(O)c(OC)c2c3c(cc4ccccc42)NC(=O)c13` [ARISTOLACTAM F II], the inhibition at 10 µg/mL in the assay with Platelet [9] stood at 85.4%; in the assay with Platelet [10], 81.7%. The inhibition at 100 µg/mL with Platelet [1] was 83.9%; with Platelet [2], 8.5%; with Platelet [3], 9.7%; in the assay on Platelet [6], 6.7%. The inhibition at 50 µg/mL in the assay with Platelet [7] worked out at 16.5%; in the assay on Platelet [5], 14.5%. For the same compound, the inhibition at 20 µg/mL in the assay with Platelet [8] amounted to 52.5%; in the assay on Platelet [4] it was 81.7%.
